Columns and labels:
[1] = target: Serine/threonine-protein kinase BRSK2 (Homo sapiens) (UniProt Q8IWQ3)
[2] = target: Calcium/calmodulin-dependent protein kinase type 1D (Homo sapiens) (UniProt Q8IU85)
[3] = target: Cyclin-dependent kinase-like 1 (Homo sapiens) (UniProt Q00532)
[4] = target: T1, Serine/threonine-protein kinase Chk1 (Homo sapiens) (UniProt O14757)
T1 sequence (whole entry): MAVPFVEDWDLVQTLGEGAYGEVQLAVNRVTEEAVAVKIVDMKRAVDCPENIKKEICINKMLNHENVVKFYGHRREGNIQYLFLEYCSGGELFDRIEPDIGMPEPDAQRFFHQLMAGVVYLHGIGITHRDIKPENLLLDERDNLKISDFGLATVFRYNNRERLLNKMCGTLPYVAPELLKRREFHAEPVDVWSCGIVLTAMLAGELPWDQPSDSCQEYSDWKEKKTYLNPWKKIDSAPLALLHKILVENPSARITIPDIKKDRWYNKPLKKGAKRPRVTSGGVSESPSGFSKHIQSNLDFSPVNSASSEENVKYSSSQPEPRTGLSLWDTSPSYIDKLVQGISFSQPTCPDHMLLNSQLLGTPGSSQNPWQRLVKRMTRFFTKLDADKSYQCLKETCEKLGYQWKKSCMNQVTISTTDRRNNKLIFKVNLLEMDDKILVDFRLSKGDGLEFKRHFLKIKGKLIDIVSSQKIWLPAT

[5] = target: Casein kinase I isoform alpha (Homo sapiens) (UniProt P48729)
[6] = target: Casein kinase I isoform epsilon (Homo sapiens) (UniProt P49674)
[7] = target: Death-associated protein kinase 1 (Homo sapiens) (UniProt P53355)
[8] = target: Death-associated protein kinase 2 (Homo sapiens) (UniProt Q9UIK4)
Chain of Death-associated protein kinase 2 (Homo sapiens) (Q9UIK4 whole entry, looked up): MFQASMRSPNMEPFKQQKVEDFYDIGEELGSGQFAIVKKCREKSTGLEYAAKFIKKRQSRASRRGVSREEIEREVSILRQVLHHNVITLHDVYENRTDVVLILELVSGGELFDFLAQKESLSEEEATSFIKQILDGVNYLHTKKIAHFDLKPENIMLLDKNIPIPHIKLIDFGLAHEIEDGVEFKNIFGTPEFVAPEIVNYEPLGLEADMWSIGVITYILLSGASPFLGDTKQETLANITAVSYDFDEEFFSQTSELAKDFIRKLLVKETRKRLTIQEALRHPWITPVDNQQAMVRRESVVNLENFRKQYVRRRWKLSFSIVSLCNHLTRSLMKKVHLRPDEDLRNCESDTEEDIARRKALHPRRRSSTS

[9] = target: Ephrin type-A receptor 2 (Homo sapiens) (UniProt P29317)
Chain of Ephrin type-A receptor 2 (Homo sapiens) (P29317 whole entry): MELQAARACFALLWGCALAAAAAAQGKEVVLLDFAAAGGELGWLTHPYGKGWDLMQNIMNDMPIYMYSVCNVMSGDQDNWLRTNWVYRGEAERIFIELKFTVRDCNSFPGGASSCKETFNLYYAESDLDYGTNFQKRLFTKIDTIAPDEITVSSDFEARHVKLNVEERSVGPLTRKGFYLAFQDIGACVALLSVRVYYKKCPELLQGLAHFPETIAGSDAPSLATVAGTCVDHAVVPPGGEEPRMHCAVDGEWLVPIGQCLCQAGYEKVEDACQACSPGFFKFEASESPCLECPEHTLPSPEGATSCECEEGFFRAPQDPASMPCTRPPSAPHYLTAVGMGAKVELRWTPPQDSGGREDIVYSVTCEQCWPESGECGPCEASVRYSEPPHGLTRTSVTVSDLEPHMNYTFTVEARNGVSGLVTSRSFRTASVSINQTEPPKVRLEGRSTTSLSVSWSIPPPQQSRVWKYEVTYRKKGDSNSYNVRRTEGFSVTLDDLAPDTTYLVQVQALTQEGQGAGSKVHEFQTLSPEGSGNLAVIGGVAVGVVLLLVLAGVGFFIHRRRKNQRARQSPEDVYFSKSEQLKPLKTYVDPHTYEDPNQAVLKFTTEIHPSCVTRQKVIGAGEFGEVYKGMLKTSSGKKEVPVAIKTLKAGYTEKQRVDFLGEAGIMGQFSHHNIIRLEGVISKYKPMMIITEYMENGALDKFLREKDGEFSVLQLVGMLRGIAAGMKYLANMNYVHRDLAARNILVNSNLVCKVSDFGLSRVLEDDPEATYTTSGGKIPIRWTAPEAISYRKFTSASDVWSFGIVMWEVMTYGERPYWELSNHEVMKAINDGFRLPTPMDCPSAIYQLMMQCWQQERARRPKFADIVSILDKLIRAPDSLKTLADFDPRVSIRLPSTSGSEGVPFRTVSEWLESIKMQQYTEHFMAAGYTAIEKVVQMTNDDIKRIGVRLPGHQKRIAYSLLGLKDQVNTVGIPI

[10] = target: Tyrosine-protein kinase HCK (Homo sapiens) (UniProt P08631)
[11] = target: Mitogen-activated protein kinase kinase kinase kinase 1 (Homo sapiens) (UniProt Q92918)
[12] = target: T2, Inhibitor of nuclear factor kappa-B kinase subunit beta (Homo sapiens) (UniProt O14920)
T2 sequence (whole entry): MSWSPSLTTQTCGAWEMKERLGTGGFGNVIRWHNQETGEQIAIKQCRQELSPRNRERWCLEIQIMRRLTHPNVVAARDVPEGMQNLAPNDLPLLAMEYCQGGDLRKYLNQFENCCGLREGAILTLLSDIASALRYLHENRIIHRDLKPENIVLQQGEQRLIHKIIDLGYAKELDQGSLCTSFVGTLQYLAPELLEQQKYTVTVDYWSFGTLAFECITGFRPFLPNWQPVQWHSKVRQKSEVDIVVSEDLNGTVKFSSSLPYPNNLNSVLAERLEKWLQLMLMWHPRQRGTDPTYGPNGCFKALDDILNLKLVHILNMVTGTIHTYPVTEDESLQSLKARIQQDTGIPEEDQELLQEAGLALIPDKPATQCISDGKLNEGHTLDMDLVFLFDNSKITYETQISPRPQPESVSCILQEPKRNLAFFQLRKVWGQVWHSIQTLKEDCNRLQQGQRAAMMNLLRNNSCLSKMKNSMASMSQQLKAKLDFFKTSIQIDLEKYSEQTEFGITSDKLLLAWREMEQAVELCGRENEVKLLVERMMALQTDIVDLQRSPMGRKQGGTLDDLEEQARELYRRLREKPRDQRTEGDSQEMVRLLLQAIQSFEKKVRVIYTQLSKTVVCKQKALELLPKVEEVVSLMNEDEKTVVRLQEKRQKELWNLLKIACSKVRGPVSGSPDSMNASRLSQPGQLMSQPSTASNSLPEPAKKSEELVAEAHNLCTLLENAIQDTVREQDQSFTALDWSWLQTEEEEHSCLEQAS

[13] = target: Tyrosine-protein kinase Lyn (Homo sapiens, UniProt P07948)
[14] = target: Serine/threonine-protein kinase MARK1 (Homo sapiens, UniProt Q9P0L2)
[15] = target: Tyrosine-protein kinase Mer (Homo sapiens) (UniProt Q12866)
[16] = test system: Hepatocyte growth factor receptor (Homo sapiens), P08581 [Y1235D]
[17] = target: Muscle, skeletal receptor tyrosine-protein kinase (Homo sapiens) (UniProt O15146)
[18] = target: Serine/threonine-protein kinase Nek2 (Homo sapiens) (UniProt P51955)
Chain of Serine/threonine-protein kinase Nek2 (Homo sapiens) (P51955 whole entry): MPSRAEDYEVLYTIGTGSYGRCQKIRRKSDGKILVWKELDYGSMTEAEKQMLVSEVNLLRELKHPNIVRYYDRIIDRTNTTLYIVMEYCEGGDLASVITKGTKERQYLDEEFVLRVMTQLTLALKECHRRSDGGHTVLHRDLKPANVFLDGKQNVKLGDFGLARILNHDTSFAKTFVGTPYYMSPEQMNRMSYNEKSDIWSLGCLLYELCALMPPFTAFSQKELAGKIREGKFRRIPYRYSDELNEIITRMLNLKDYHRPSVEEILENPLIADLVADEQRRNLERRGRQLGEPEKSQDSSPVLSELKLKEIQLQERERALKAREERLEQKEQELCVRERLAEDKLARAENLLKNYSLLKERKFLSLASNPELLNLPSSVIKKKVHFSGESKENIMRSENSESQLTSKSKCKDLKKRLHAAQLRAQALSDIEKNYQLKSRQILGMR

[19] = target: Cyclin-dependent kinase 14 (Homo sapiens) (UniProt O94921)
[20] = target: 1-phosphatidylinositol 3-phosphate 5-kinase (Homo sapiens) (UniProt Q9Y2I7)
[21] = target: Serine/threonine-protein kinase N1 (Homo sapiens) (UniProt Q16512)
Chain of Serine/threonine-protein kinase N1 (Homo sapiens) (Q16512 2-942 limits assumed): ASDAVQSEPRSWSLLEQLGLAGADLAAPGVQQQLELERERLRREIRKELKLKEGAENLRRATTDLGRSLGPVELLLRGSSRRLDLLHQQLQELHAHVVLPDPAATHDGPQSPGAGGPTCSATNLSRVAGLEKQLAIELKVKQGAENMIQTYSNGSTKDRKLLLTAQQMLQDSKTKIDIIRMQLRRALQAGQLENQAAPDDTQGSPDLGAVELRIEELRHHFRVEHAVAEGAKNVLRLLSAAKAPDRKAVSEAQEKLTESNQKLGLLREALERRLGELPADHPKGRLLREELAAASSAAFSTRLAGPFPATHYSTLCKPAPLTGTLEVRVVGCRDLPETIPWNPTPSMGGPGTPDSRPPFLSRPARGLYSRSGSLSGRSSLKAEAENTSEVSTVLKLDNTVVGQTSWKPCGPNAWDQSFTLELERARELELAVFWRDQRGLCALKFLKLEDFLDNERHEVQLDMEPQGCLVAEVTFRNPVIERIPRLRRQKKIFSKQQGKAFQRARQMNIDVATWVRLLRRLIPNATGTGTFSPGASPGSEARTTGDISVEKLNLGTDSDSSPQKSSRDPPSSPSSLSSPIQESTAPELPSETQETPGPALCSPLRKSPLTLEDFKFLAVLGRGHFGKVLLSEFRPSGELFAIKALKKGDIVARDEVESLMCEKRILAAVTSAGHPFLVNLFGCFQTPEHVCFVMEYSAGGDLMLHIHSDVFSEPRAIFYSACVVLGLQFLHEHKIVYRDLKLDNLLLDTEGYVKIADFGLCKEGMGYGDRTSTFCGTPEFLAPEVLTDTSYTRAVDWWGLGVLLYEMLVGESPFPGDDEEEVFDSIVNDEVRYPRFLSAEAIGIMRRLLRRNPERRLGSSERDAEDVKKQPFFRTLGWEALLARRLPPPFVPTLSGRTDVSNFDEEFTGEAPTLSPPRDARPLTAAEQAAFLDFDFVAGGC

[22] = target: Ribosomal protein S6 kinase alpha-4 (Homo sapiens) (UniProt O75676)
[23] = target: Ribosomal protein S6 kinase alpha-6 (Homo sapiens) (UniProt Q9UK32)
[24] = target: NUAK family SNF1-like kinase 2 (Homo sapiens) (UniProt Q9H093)
[25] = target: Serine/threonine-protein kinase 33 (Homo sapiens) (UniProt Q9BYT3)
[26] = target: Serine/threonine-protein kinase TAO2 (Homo sapiens) (UniProt Q9UL54)
Chain of Serine/threonine-protein kinase TAO2 (Homo sapiens) (Q9UL54 whole entry): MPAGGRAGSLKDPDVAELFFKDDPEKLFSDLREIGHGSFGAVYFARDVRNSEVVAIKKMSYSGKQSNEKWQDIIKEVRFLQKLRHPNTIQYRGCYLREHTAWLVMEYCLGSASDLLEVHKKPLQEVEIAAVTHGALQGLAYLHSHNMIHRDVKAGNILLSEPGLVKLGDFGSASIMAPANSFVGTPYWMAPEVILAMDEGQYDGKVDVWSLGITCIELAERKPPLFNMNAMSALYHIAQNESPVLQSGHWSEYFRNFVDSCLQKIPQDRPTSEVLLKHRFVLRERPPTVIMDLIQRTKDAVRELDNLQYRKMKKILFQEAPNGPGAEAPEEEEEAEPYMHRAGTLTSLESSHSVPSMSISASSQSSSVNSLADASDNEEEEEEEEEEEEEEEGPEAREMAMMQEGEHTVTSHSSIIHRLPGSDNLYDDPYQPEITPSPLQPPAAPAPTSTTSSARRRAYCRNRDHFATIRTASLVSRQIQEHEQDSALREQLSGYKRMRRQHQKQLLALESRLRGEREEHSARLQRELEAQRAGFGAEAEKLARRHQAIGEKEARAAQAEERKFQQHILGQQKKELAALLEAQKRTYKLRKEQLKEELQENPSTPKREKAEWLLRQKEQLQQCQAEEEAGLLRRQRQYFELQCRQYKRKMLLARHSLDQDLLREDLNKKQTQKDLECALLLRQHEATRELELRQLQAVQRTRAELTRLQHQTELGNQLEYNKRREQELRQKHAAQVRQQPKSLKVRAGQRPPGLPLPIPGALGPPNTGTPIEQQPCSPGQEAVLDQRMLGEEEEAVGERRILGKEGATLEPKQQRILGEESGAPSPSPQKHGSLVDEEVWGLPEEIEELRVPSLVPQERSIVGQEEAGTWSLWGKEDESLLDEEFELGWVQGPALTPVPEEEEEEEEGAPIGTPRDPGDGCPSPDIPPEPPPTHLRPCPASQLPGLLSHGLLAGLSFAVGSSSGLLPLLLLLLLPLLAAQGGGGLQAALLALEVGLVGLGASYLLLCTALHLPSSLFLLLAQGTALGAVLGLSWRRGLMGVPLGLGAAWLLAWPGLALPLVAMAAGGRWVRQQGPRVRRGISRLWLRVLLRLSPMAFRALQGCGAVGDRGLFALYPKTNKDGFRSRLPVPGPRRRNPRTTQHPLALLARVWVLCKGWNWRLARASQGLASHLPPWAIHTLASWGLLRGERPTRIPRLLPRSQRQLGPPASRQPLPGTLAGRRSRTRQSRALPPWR

[27] = target: Wee1-like protein kinase (Homo sapiens) (UniProt P30291)
[28] = target: Serine/threonine-protein kinase 32B (Homo sapiens) (UniProt Q9NY57)
Chain of Serine/threonine-protein kinase 32B (Homo sapiens) (Q9NY57 whole entry): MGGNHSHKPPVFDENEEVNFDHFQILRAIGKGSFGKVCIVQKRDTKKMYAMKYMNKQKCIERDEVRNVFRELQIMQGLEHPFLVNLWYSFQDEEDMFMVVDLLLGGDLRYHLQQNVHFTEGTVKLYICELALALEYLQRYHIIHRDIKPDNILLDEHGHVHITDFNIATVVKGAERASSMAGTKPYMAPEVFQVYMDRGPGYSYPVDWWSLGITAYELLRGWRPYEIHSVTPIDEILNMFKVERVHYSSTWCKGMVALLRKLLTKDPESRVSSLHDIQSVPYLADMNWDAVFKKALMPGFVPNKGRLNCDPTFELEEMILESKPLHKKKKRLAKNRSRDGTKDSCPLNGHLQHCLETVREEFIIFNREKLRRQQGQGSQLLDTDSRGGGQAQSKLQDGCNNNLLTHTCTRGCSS

[29] = target: Sigma non-opioid intracellular receptor 1 (Homo sapiens) (UniProt Q99720); settings: Compound concentration 10.0 uM
Chain of Sigma non-opioid intracellular receptor 1 (Homo sapiens) (Q99720 whole entry): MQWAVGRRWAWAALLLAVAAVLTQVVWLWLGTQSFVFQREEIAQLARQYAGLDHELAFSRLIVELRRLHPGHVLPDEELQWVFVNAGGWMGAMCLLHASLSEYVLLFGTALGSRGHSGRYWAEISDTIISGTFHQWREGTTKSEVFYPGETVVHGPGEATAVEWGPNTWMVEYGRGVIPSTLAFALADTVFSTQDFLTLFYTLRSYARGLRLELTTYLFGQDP

[30] = Compound concentration 100.0 nM
[31] = Compound concentration 1000.0 nM

Chain of Cyclin-dependent kinase-like 1 (Homo sapiens) (Q00532 whole entry): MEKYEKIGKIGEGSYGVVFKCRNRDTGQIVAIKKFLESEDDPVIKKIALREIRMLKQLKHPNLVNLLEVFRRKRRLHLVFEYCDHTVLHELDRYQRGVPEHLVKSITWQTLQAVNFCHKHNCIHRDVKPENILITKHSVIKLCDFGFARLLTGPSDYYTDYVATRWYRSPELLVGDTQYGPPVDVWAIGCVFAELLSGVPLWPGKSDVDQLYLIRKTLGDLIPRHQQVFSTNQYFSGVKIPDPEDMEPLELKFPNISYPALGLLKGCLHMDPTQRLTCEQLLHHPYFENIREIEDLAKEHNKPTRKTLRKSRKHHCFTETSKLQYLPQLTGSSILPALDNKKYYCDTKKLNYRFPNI

CNC(=O)c1ccc(Nc2ncc(C(F)(F)F)c(NCc3nccnc3N(C)S(C)(=O)=O)n2)cc1 [DEFACTINIB]
active: residual activity [11, 30] 18%
inactive: residual activity [1, 30] 100% | residual activity [2, 30] 100% | residual activity [3, 30] 82% | residual activity [4, 30] 100% | residual activity [5, 30] 94% | residual activity [6, 30] 100% | residual activity [7, 30] 82% | residual activity [8, 30] 68% | residual activity [9, 30] 86% | residual activity [10, 30] 100% | residual activity [12, 30] 100% | residual activity [13, 30] 85% | residual activity [14, 30] 100% | residual activity [15, 30] 54% | residual activity [16, 30] 71% | residual activity [17, 30] 100% | residual activity [18, 30] 75% | residual activity [19, 30] 88% | residual activity [20, 30] 100% | residual activity [21, 30] 100% | residual activity [22, 30] 85% | residual activity [23, 30] 70% | residual activity [24, 30] 53% | residual activity [25, 30] 68% | residual activity [26, 30] 92% | residual activity [27, 30] 95% | residual activity [28, 30] 97% | inhibition [29] 40.1%

CN(c1ccnc(CNc2nc(Nc3ccc4c(c3)CC(=O)N4)ncc2C(F)(F)F)n1)S(C)(=O)=O [PF-00911705]
active: residual activity [7, 31] 15% | residual activity [11, 31] 33% | residual activity [15, 31] 21% | residual activity [16, 31] 10% | residual activity [21, 31] 43% | residual activity [23, 31] 4.6% | residual activity [24, 31] 7.6% | residual activity [25, 31] 15% | residual activity [27, 31] 13%
inactive: residual activity [1, 31] 97% | residual activity [2, 31] 79% | residual activity [3, 31] 61% | residual activity [4, 31] 57% | residual activity [5, 31] 81% | residual activity [6, 31] 100% | residual activity [8, 31] 58% | residual activity [9, 31] 80% | residual activity [10, 31] 100% | residual activity [12, 31] 78% | residual activity [13, 31] 80% | residual activity [14, 31] 77% | residual activity [17, 31] 92% | residual activity [18, 31] 83% | residual activity [19, 31] 86% | residual activity [20, 31] 100% | residual activity [22, 31] 81% | residual activity [26, 31] 58% | residual activity [28, 31] 100% | inhibition [29] 23.1%

From ChEMBL document CHEMBL4507299, “Data for DCP probe PF-04554878” (2021)
